Reference: EP0324390A2, “Nigericin derivatives, method for their preparation, compositions containing them and use of these compositions” (priority 1988, dated 1989)
Values after ≈ are worked out from the molar mass of the structure shown.

Legend:
Format in all cases: cell-based
Testviren = assay: Antiviral activity in cell culture (CPE, HeLa or Vero cells); conditions: cell cultures infected with test viruses; qualitative statement
Staph. aureus (SG 511) = assay: Agar dilution test according to Lorian (antibacterial activity); conditions: Staphylococcus aureus
Description: (§1) Die antibakterielle Wirksamkeit der erfindungsgemäßen Verbindungen wurde im Agar-Verdünnungstest nach Lorian (Antibiotics in Laboratory Medicine, Williams & Wilkins, Baltimore/London, 1980) bestimmt. Dabei wurden die Präparate in einer geometrischen Verdünnungsreihe mit dem Faktor 2 in Müller Hinton Agar verdünnt. Eine Petrischale enthielt nur Müller Hinton Agar und diente zur Kontrolle des Bakterienwachstums. Die Petrischalen wurden dann mit einem Denley-Multipoint-Inokulator, welcher 0,6 ul einer 1 : 100 verdünnten 18-Stunden-Kultur der Testbakterien übertrug, mit den entsprechenden Testbakterien beimpft. Nach 16 bis 18 Stunden Inkubation bei 37^. C wurden die Petrischalen makroskopisch auf Bakterienwachstum untersucht.
(§2) Die niedrigste Konzentration der erfindungsgemäßen Verbindungen, welche das Bakterienwachstum noch vollständig verhinderte, wurde als MIC (Minimum Inhibitory Concentration) angenommen.
(§3) In Tabelle 4 ist die Wirkung (Angabe des MIC in µg/ml) von verschiedenen erfindungsgemäßen Verbindungen gegen folgende Bakterien aufgeführt: • Staph. aureus (SG 511), Staph. aureus (285), Staph. aureus (503), Strept. pyogenes (308 A), Strept pyogenes (77 A), Strept. faecium (D).

Staph. aureus (285) = assay: as above; conditions: Staphylococcus aureus
Description: as §1, §2, §3

Staph. aureus (503) = assay: as above; conditions: Staphylococcus aureus
Description: as §1, §2, §3

Strept. faecium (D) = assay: as above; conditions: Enterococcus faecium
Description: as §1, §2, §3

Entrob. Cloacae (1321 E) = assay: Antibacterial activity against gram-negative bacteria; conditions: Enterobacter cloacae, read-out: MHK
Description: as §1, §2
(§4) Überraschend zeigen die Dicarbonsäure-Addukte des Nigericins auch eine Wirkung gegen gramnegative Bakterien. So besitzt beispielsweise die Substanz aus Beispiel 32 gegen E. coli eine MHK von 0,55 µg/ml, gegen E. coli (DC 2) eine MHK von 25,0 µg/ml und gegen Entrob. Cloacae (1321 E) eine MHK von 250 µg/ml.

E. coli = assay: as above; conditions: Escherichia coli, read-out: MHK
Description: as §1, §2, §4

E. coli (DC 2) = assay: as above; conditions: Escherichia coli, read-out: MHK
Description: as §1, §2, §4

| SMILES | antivirale Wirkung (Testviren) | MIC (Staph. aureus (SG 511)) [µg/mL] | MIC (Staph. aureus (285)) [µg/mL] | MIC (Staph. aureus (503)) [µg/mL] | MIC (Strept. faecium (D)) [µg/mL] | MIC (Entrob. Cloacae (1321 E)) [µg/mL] | MIC (E. coli) [µg/mL] | MIC (E. coli (DC 2)) [µg/mL] |
| --- | --- | --- | --- | --- | --- | --- | --- | --- |
| CO[C@@H]1C[C@@H](C[C@H]2CC[C@H](C)[C@H]([C@@H](C)C(=O)O)O2)O[C@]2(O[C@](C)([C@H]3CC[C@@](C)([C@@H]4O[C@@H]([C@H]5O[C@@](O)(CO)[C@H](C)C[C@@H]5C)C[C@@H]4C)O3)C[C@H]2C)[C@@H]1C [Beispiel 1, Nigericin] | ausgezeichnete antivirale Wirkung |  |  |  |  |  |  |  |
| COC1CC(CC2CCC(C)C(C(C)C(=O)O)O2)OC2(OC(C)(C3CCC(C)(C4OC(C5OC(O)(COC(=O)CCCC(=O)O)C(C)CC5C)CC4C)O3)CC2C)C1C (centres unmarked) [Beispiel 32] |  | 0.39 (≈ 0.465 µM) | 0.39 (≈ 0.465 µM) | 0.39 (≈ 0.465 µM) | 0.39 (≈ 0.465 µM) | 250 (≈ 298 µM) | 0.55 (≈ 0.655 µM) | 25 (≈ 29.8 µM) |
